Measured values published in patent US12029818B2 (CRITITECH, INC., priority 2020, dated 2024).

Tests used:
[1] = Particle size distribution (PSD) by laser diffraction, Malvern Mastersizer 3000; type: physicochemical
Method: PSD analyses were conducted on a Malvern Mastersizer™ 3000 using the Aero S™ dispersion unit according to manufacturer's instructions.

[2] = Specific surface area by BET sorptometry
Method: SSA determination analyses were conducted on a Porous Materials, Inc., Automated BET Sorptometer BET-202A according to manufacturer's instructions.

[3] = Shake-flask solubility in organic solvent/water mixtures; type: physicochemical; conditions: methanol and ethanol in water
Method: The drug was added in excess to each solution prepared in duplicate.

[4] = PXRD solid form and 14 day room temperature stability study

CS(=O)(=O)CCNCc1ccc(-c2ccc3ncnc(Nc4ccc(OCc5cccc(F)c5)c(Cl)c4)c3c2)o1 [Lapatinib, N-(3-chloro-4-{[(3-fluorophenyl)methyl]oxy}phenyl)-6-[5-({[2-(methylsulfonyl)ethyl]amino}methyl)-2-furanyl]-4-quinazolinamine]
PSD: Volume Dv-10 [1]: 0.839 μm | PSD: Volume Dv-50 [1]: 6.59 μm | PSD: Volume Dv-90 [1]: 335 μm | SSA ([2]; listed as Lapatinib Raw): 2.33 m^2/g | SSA ([2]; listed as unprocessed material): 1.60 m^2/g | Solubility dependence on organic solvent concentration [3]: concentration dependent solubility | Crystalline/amorphous form by PXRD [4]: crystalline
